From PMC8861063, “Increase water solubility of Centellaasiatica extract by indigenous bioenhancers could improve oral bioavailability and disposition kinetics of triterpenoid glycosides in beagle dogs” (Scientific Reports, 2022)

Key:
[1] = dog, in vivo
Description: Eight healthy 8-month-old male beagles were obtained from the Chulalongkorn University Laboratory Animal Centre (CULAC), Chulalongkorn University. […] Food was provided twice a day, and water was available ad libitum. […] The animal experiments were approved by the Institutional Animal Care and Use Committee of the CULAC, Chulalongkorn University, Bangkok, Thailand (Protocol number 2073002, Approval date: February 21, 2020). All animal procedures were complied with the ethical principles and guidelines for the use of animals (National Research Council of Thailand, 2015). All animal experiments followed the ARRIVE reporting guidelines for documenting animal experiments.
(§1) One or two capsules containing the test substance were orally administered at 8:00 AM to the dogs following the experimental plan. […] The blood samples were centrifuged at 5000g for 10 min at 4 °C to collect plasma and then stored at − 80 °C until analysis. […] The volume of urine and weight of faeces were recorded and all samples were stored at − 80 °C until analysis. All dogs were reused with a washed out period of two weeks, to allow complete excretion of bioactive triterpenoids.
All biological samples (plasma, urine, and faeces) were subjected to protein precipitation to extract the major triterpenoids from the samples. Two hundred microliters of methanol with two internal standards (glycyrrhizin and glycyrrhetinic acid) was added to 50 µL of the biological sample and mixed for 10 min. Then, the sample was centrifuged at 12,000g for 10 min at 4 °C, and 10 µL of supernatant was injected into the LC–MS/MS system. Faeces samples were homogenised by adding methanol, then the mixture was centrifuged at 1500g for 10 min at 4 °C to collect the supernatant. In the case of the concentration of the biological sample exceeded the linear calibration curve; blank matrices were used to dilute before protein precipitation. For method validation, all major components in the biological sample of dog were determined and validated according to the previous reports with little modification.
The LC–MS/MS system was set up according to a previous published method. In brief, an LCMS-8060 coupled with a triple quadrupole mass spectrometer was controlled by LabSolution software version 5.86 (Shimadzu Corp.). A Synergi Fusion-RP C18 column (Phenomenex Inc.) maintained at 40 °C was used as the stationary phase. The analysis was run using absolute methanol and 0.2% formic acid in water as the mobile phase.
To evaluate significant differences between the pre- and post-dose of the test substances to the health status of dogs, the biochemical data were compared by using Student’s t-test. PK solution software version 2.0 (Summit Research Services) was used to analyse pharmacokinetic parameters by non-compartmental analysis. Cmax and Tmax were directly determined from plasma concentration–time curves. AUC0-24 was calculated using the trapezoidal rule and extrapolated to time infinity by the equation AUC0-inf = AUC0–24 + (Clast/kel), where Clast is the last observed plasma concentration after dosing and kel is the elimination rate constant. MRT was calculated as AUMC0-inf/AUC0-inf, where AUMC0-inf is the area under the first moment concentration–time curve. Vd was equal to dose/C0, where C0 is the plasma concentration at time zero and CL was calculated as dose/AUC0-inf. […] Absolute bioavailability was calculated as (AUCp.o./DOSEp.o.)/(AUCi.v./DOSEi.v.) × 100. Relative bioavailability was calculated from (AUCCTS/DOSECTS)/(AUCECa/DOSEECa) × 100. Before performing the statistical analysis in SPSS version 22.0 (IBM Corp.), the Shapiro–Wilk test was used to determine whether the data were normally distributed. A paired Student’s t test or Wilcoxon signed-rank test was used to determine significant differences of pharmacokinetic parameters between the groups.

[2] = dog, in vivo, iv
Experimental: as §1
All biological samples (plasma, urine, and faeces) were subjected to protein precipitation to extract the major triterpenoids from the samples. […] For method validation, all major components in the biological sample of dog were determined and validated according to the previous reports with little modification. […]
(§2) To evaluate significant differences between the pre- and post-dose of the test substances to the health status of dogs, the biochemical data were compared by using Student’s t-test. […] Cmax and Tmax were directly determined from plasma concentration–time curves. AUC0-24 was calculated using the trapezoidal rule and extrapolated to time infinity by the equation AUC0-inf = AUC0–24 + (Clast/kel), where Clast is the last observed plasma concentration after dosing and kel is the elimination rate constant. […] Absolute bioavailability was calculated as (AUCp.o./DOSEp.o.)/(AUCi.v./DOSEi.v.) × 100. […]

[3] = dog, in vivo; remark: listed apart in the source
Experimental: as §1
as §2, with “constant. MRT was calculated as AUMC0-inf/AUC0-inf, where AUMC0-inf is the area under the first moment concentration–time curve. Vd was equal to dose/C0, where C0 is the plasma concentration at time zero and CL was calculated as dose/AUC0-inf.” for “constant.”, “100. Relative bioavailability was calculated from (AUCCTS/DOSECTS)/(AUCECa/DOSEECa) × 100.” for “100.”

C[C@H]1[C@H](C)CC[C@]2(C(=O)O)CC[C@]3(C)C(=CC[C@@H]4[C@@]5(C)C[C@@H](O)[C@H](O)[C@@](C)(CO)[C@@H]5CC[C@]43C)[C@H]12 [asiatic acid]
plasma concentration compared with madecassic acid ([1]; po): approximately tenfold higher

C[C@H]1[C@H](C)CC[C@]2(C(=O)O[C@@H]3O[C@H](CO[C@@H]4O[C@H](CO)[C@@H](O[C@@H]5O[C@@H](C)[C@H](O)[C@@H](O)[C@H]5O)[C@H](O)[C@H]4O)[C@@H](O)[C@H](O)[C@H]3O)CC[C@]3(C)C(=CC[C@@H]4[C@@]5(C)C[C@@H](O)[C@H](O)[C@@](C)(CO)[C@@H]5[C@H](O)C[C@]43C)[C@H]12 [madecassoside]
AUC0-24 of madecassoside ([1]; iv, 0.46 mg/kg): 15,662 ± 1927 µg.h/L | AUC0-inf of madecassoside ([1]; iv, 0.46 mg/kg): 15,705 ± 1938 µg.h/L | Half-life of madecassoside ([1]; iv, 0.46 mg/kg): 3.88 (0.40) h | MRT of madecassoside ([1]; iv, 0.46 mg/kg): 8.05 ± 0.99 h | Vd of madecassoside ([1]; iv, 0.46 mg/kg): 0.18 ± 0.05 L/kg | excretion route of parent triterpenoid glycosides [2]: excreted via urine within 24 h | measured biochemical parameters (haematology, kidney, liver functions), pre-dose versus post-dose [3]: no significant differences
